Earlier results in patent US5434330A, “Process and apparatus for separation of constituents of gases using gas hydrates” (priority 1993, dated 1995).
Read-outs that look alike come from different tables or passages of the source.

Legend:
[1] = for calculation at 253K
[2] = in ethyl ether, 20° C.
[3] = 25° C.

nitrogen-methanol Henry's law constant ([1]; in methanol) | nitrogen-water Henry's law constant ([1]; in water) | Structure (SMILES) | Ostwald coefficient [2] | methane-methanol Henry's law constant ([1]; in methanol) | methane-water Henry's law constant ([1]; in water) | SOLUBILITY OF METHANE, HENRY'S CONSTANT H ([3]; in Acetone) | SOLUBILITY OF METHANE, HENRY'S CONSTANT H ([3]; in Ethanol) | SOLUBILITY OF METHANE, HENRY'S CONSTANT H ([3]; in Methanol) | SOLUBILITY OF METHANE, HENRY'S CONSTANT H ([3]; in Water)
3,632 atm | 27,987 atm | N#N [nitrogen] |  |  |  |  |  |  | 
 |  | C [methane] | 1028 | 824 atm | 10,193 atm | 533 atm | 770 atm | 1137 atm | 39,052 atm
